Results from US9416115B2, “Fused heterocyclic compounds as ion channel modulators” (Gilead Sciences, Inc., priority 2013, dated 2016).
Read-outs that look alike come from different tables or passages of the source.

How the values were obtained:
[1] = target: wild-type human cardiac sodium channel, hNav1.5 (Homo sapiens, UniProt Q14524); experiment: Peak INa screening assay (tonic block and use-dependent block); type: cell-based
How it was run: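 HEK293 cells stably expressing hNav1.5 (no beta subunits), automated whole-cell patch clamp at 23-25° C, 40 mM Na+ bath (choline substitution), pH 7.35. Compound at 1 or 3 μM, added twice then 200 s equilibration; tonic block by steps to −20 mV from −100 mV at 0.1 Hz, use-dependent block at pulse 50 of a 3 Hz train, rundown-corrected versus compound-free.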

[2] = target: T1, hNaV1.2 (SCN2A) (Homo sapiens, UniProt Q99250); experiment: Use-dependent inhibition of the CNS Nav1.2 sodium channel; type: cell-based; conditions: use-dependent block, 25 Hz, pulse 20, read-out: Nav1.2 UDB 25 Hz 10 uM
T1 construct: expressed in transfected cells
T1 sequence (Q99250 whole entry): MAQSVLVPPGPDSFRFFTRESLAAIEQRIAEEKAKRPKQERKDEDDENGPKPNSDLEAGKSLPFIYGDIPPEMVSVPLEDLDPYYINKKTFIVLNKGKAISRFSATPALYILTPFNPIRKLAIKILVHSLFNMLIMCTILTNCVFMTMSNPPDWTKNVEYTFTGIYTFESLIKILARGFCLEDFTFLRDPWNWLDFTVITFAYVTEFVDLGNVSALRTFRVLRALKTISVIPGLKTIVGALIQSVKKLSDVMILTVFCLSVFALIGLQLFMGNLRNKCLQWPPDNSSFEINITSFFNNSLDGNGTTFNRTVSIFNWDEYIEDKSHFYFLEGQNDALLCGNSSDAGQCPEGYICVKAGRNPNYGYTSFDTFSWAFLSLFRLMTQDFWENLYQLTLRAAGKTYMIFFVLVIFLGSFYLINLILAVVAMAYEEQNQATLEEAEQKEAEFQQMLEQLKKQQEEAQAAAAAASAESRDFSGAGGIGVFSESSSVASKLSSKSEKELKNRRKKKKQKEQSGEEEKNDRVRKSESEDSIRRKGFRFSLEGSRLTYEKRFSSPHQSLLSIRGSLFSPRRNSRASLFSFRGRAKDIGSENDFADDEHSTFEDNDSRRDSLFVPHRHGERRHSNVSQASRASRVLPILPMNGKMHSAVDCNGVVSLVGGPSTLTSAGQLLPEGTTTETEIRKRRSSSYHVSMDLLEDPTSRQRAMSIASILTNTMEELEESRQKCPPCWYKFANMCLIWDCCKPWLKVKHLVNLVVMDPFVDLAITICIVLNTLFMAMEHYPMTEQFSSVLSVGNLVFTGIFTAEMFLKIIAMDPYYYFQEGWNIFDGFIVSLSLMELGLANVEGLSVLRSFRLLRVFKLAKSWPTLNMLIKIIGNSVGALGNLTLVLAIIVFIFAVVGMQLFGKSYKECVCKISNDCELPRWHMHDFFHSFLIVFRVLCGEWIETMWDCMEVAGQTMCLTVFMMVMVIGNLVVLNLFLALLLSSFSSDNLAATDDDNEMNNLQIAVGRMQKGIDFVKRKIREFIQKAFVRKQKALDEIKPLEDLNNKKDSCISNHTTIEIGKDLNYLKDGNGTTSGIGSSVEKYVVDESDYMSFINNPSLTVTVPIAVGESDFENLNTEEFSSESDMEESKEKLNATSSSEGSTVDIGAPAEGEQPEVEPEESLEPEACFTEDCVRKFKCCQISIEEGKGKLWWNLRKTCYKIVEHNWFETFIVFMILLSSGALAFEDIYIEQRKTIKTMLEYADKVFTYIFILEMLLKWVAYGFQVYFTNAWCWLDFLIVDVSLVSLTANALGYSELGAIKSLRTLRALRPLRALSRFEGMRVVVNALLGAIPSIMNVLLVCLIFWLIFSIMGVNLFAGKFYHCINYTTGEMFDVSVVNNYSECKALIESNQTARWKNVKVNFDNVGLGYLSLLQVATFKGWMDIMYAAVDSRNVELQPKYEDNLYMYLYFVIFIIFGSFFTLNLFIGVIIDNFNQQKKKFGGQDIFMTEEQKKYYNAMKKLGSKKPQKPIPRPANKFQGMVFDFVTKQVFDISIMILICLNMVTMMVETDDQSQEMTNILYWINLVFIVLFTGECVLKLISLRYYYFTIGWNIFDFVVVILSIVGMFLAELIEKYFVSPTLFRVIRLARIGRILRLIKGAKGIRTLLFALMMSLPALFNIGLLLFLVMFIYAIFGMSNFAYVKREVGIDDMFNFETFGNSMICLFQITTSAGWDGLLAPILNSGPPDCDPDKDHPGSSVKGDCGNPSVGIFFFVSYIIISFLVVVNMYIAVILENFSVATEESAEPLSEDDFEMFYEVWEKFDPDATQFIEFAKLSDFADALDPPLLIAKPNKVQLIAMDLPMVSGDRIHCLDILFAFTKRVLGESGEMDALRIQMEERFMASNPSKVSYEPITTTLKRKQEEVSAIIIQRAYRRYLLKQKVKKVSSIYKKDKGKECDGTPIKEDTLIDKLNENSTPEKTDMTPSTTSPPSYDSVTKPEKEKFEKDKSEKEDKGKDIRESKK
T1 sequence (Q07699 19-218 partner): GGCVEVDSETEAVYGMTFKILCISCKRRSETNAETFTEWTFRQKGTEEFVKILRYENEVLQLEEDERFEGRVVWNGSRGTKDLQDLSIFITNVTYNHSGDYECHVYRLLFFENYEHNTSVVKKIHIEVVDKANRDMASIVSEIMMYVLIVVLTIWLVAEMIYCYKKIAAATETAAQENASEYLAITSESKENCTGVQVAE
T1 sequence (O60939 30-215 partner): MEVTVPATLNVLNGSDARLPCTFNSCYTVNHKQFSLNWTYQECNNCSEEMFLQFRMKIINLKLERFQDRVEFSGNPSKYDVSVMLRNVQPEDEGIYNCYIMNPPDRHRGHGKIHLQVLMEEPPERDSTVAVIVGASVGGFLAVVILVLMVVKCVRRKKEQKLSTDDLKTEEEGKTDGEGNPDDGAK
How it was run: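 Use-dependent block of human Nav1.2 was measured by automated whole-cell patch clamp (QPatch) in HEK-293 cells stably expressing hNaV1.2 with SCN1B and SCN2B. From a holding potential of −120 mV, a train of 20 pulses to 0 mV (20 ms, 25 Hz) was applied. Peak current at pulse 20 was normalized to the first pulse, and percent inhibition was calculated relative to compound-free recordings.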

[3] = tonic block of Peak INa, 0.1 Hz, holding -100 mV, read-out: Peak TB 3 uM
[4] = use-dependent block of Peak INa, 3 Hz, pulse 50, read-out: Peak UDB 3 Hz 3 uM

wild-type human cardiac sodium channel, hNav1.5, sequence (Q14524 whole entry): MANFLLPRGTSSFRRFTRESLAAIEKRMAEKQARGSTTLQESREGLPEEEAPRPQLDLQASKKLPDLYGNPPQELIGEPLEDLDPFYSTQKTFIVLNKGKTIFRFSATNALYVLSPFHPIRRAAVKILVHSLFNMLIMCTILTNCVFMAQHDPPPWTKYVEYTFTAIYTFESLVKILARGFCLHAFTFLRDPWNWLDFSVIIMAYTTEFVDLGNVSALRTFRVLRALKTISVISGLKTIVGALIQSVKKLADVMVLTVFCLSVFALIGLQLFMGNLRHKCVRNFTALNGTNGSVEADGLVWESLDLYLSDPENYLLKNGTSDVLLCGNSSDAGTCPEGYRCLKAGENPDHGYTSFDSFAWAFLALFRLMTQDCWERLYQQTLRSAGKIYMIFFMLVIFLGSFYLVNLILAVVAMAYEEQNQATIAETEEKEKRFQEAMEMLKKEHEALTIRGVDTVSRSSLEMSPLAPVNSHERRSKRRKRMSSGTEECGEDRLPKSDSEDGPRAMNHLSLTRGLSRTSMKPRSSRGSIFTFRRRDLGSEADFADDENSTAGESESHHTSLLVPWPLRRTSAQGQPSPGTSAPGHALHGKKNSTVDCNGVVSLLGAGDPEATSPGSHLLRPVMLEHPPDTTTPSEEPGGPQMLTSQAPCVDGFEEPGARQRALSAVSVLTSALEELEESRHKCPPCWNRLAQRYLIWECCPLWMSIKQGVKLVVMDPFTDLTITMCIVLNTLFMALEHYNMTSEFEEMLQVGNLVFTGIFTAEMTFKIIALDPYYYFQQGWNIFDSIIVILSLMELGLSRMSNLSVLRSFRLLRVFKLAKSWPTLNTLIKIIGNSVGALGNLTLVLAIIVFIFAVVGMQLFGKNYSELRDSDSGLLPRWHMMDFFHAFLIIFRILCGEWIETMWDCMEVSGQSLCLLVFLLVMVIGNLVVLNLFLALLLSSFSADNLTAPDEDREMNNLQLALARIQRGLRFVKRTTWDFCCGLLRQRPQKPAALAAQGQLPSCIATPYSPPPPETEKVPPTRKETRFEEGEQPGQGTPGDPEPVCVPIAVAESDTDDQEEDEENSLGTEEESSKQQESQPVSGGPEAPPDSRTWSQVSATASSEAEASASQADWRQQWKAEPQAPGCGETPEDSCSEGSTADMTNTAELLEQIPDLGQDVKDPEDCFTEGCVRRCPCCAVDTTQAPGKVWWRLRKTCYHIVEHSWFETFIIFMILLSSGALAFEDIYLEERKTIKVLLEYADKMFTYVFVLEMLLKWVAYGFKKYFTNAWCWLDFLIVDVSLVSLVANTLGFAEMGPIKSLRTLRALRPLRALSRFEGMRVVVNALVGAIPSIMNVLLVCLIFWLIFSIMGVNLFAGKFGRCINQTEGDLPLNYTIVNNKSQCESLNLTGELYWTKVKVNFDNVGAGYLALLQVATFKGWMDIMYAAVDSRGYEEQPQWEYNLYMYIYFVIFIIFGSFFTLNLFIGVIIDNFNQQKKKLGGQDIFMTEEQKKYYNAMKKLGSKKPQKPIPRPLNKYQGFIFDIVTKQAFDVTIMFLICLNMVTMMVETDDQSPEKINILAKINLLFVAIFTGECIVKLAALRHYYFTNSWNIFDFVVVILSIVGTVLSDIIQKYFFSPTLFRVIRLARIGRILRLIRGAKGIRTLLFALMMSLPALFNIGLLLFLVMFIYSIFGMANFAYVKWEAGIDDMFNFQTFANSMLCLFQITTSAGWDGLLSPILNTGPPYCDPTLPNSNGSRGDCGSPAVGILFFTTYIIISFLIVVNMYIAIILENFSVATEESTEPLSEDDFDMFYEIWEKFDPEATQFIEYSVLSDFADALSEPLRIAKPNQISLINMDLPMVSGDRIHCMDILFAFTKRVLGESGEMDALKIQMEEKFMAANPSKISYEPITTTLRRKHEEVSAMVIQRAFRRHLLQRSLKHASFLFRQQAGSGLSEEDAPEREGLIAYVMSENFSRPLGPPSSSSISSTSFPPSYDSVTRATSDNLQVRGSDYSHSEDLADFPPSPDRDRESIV

SMILES	inhibition at 3 µM [1, 3] [%]	inhibition at 3 µM [1, 4] [%]	inhibition at 10 µM [2] [%]
CC1(COc2noc3ccc(-c4ccc(OC(F)(F)F)cc4)cc23)COC1 [Example 92, 3-((3-methyloxetan-3-yl)methoxy)-5-(4-(trifluoromethoxy)phenyl)benzo[d]isoxazole]	9.6	< 5	< 5
Cc1cccnc1COc1noc2ccc(-c3ccc(OC(F)(F)F)cc3)cc12 [Example 93, 3-((3-methylpyridin-2-yl)methoxy)-5-(4-(trifluoromethoxy)phenyl)benzo[d]isoxazole]	14.9	< 5	< 5
Cc1cccc(COc2noc3ccc(-c4ccc(OC(F)(F)F)cc4)cc23)n1 [Example 95, 3-((6-methylpyridin-2-yl)methoxy)-5-(4-(trifluoromethoxy)phenyl)benzo[d]isoxazole]	6.4	< 5	< 5
OCC1(COc2noc3ccc(-c4ccc(OC(F)(F)F)cc4)cc23)COC1 [Example 97, (3-(((5-(4-(trifluoromethoxy)phenyl)benzo[d]isoxazol-3-yl)oxy)methyl)oxetan-3-yl)methanol]	26.5	< 5	34.3
CC(Oc1noc2ccc(-c3ccc(OC(F)(F)F)cc3)cc12)c1ccccn1 (stereo not drawn) [Example 98, 3-(1-(pyridin-2-yl)ethoxy)-5-(4-(trifluoromethoxy)phenyl)benzo[d]isoxazole]	28.7	< 5	< 5
